In patent US20210353585A1, “METHODS AND COMPOSITIONS FOR TREATING LAMINOPATHIES AFFECTING SKELETAL OR CARDIAC MUSCLE” (CORNELL UNIVERSITY, priority 2018, published 2021):

Assays:
Lmna KO myofibers [1] = assay: Cell viability MTT assay, Lmna KO; assay type: cell-based, mouse; conditions: phleomycin alone or in combination with NU7441 and/or KU55933
Procedure: (§1) Pharmacological treatments. For preliminary experiments, myoblasts were differentiated using the standard protocol and treated with pharmacological treatments starting at day 5 of differentiation. For chromatin protrusion studies, paclitaxel was administered to differentiated myotubes in two 24 hours bursts at day 4 and day 6-post differentiation with a 24 hour recovery in between. Myotubes were then fixed in 4% PFA at day 7 and stained with anti-lamin B and DAPI in order to quantify the percentage of myonuclei with chromatin protrusions. For long term studies using the cGAS reporter, myotubes were treated with 10 nM of paclitaxel starting at day 5 and then media was refreshed every day. […] For DNA damage induction and inhibitor experiments, cells were treated with 20 μg/ml of phleomycin for a two-hour pulse on Day 3, 4, and 5 of differentiation. Concurrently, cells were treated with NU7441 (2 μM), KU55933 (2 μM) starting at day 2 of differentiation through day 10 of differentiation. For induction of DN-KASH and DN-KASHext, cells were treated with 1 μM doxycycline.
(§2) MTT assay. Myoblasts, seeded in a 96-well plate and differentiated as previously described for 0, 5, or 10 days, were assayed for cell viability according to the manufacturer's instructions (Promega, CellTiter 96 Non-Radioactive Cell Proliferation Assay). Fresh differentiation media was added two hours prior to the addition of 15 μL MTT 3-(4,5-dimethylthiazol-2-yl)-2,5-diphenyltetrazolium bromide dye. After incubation for 3 hours in MTT dye, 100 uL of Stop Solution was added to solubilize the formazan product (appears purple). Following overnight incubation at 37° C. and 5% CO2, the absorbance of each well (measured at 590 nm) was analyzed using a microplate reader.

Lmna WT myofibers [2] = assay: DNA damage by γH2AX foci per nucleus, Lmna WT; assay type: cell-based, mouse; conditions: for DNA damage (γH2AX foci per nucleus): Lmna WT cells, phleomycin with DNA-PK+ATM inhibition vs phleomycin alone; for DNA damage (γH2AX foci): wild-type myofibers, phleomycin 20 μg/ml pulses combined with NU7441 (2 μM) and/or KU55933 (2 μM), comparable to untreated Lmna KO
Procedure: as §1
Immunofluorescence staining of mouse cells and tissues. Cells were fixed in pre-warmed 4% PFA at the appropriate time point(s) and washed with PBS. Cells were blocked and permeabilized with a solution of 3% BSA, 0.1% Triton-X 100 and 0.1% Tween (Sigma) for 1 hour at room temperature. Cells were stained with primary antibodies diluted in blocking solution according to Table 4 at 4° C. overnight. Samples were washed with PBS and incubated for 1 hour at room temperature with 1:250 dilution of AlexaFluor antibodies (Invitrogen) and 1:1000 DAPI (Sigma). Single muscle fibers were stained using the same procedure in Eppendorf tube baskets with an increase in blocking solution Triton-X concentration to 0.25%.
Image analysis. Image sequences were analyzed using ZEN (Zeiss), ImageJ, or MATLAB (Mathworks) using only linear adjustments uniformly applied to the entire image region. Region of interest intensities were extracted using ZEN or ImageJ. To quantify cleaved caspase-3 (i.e. active) area and myofiber health, maximum intensity protections were generated, which were then blinded to the observer. Cleaved caspase-3 area was calculated by thresholding of the caspase-3 and myosin heavy chain fluorescent signal and expressing the cleaved caspase-3 signal relative to the myosin heavy chain signal. Myofiber contractions were scored based on a minimum of 6 random fields of view per replicate using a blinded analysis according to the scales provided in FIGS. 4A-4B. […] Protrusions lengths were both counted and measured by the presence of DAPI signal beyond the lamin B rim of the nucleus. Aspect ratio was quantified based on a thresholded lamin B rim to avoid the confounding factor of the DNA protrusions outside the body of the nucleus. Nuclear rupture was detected by an increase of the cytoplasmic NLS-GFP signal, or the localization of cGAS-mCherry to the nucleus. For better visualization of NLS-GFP cells many of the fluorescent single color image sequences were inverted. […] DNA damage was determined by counting H2AX foci and then binned based on foci number. If damage was so severe that individual foci could not be counted, these nuclei were placed in the >25 foci category. For Hsp90 quantification, average nuclear Hsp90 fluorescence intensity was determined from a single mid-nucleus z-plane image and normalized to the cytoplasmic intensity at two points immediately adjacent to the nucleus.

Lmna WT myofibers [3] = assay: Cell viability MTT assay, Lmna WT; assay type: cell-based, mouse; conditions: wild-type myofibers; phleomycin 20 μg/ml pulses combined with NU7441 (2 μM) and/or KU55933 (2 μM); comparable to untreated Lmna KO
Procedure: as §1, §2

chick cardiac tissue = conditions: Cho et al. 2019; cited from earlier work
Lmna H222P mice = conditions: Macquart et al. 2018; cited from earlier work
Lmna KO myofibers [4] = assay: Microharpoon assay of nuclear deformation; assay type: cell-based, mouse; conditions: Lmna KO myotubes, 50 nM paclitaxel for 24 hours vs DMSO
Procedure: For the microharpoon studies, myoblasts were seeded in 35 mm glass bottom dishes and differentiated as previously described, except without the addition of a Matrigel top coat to allow microharpoon access. A Sutter P-97 micropipette puller was used to create microharpoons from borosilicate glass rods (Sutter; OD: 1.0 mm, ID: 0.78, 10 cm length) with tip diameters of ≈1 μm. Day 4 myotubes (Lmna KO and wild-type) were treated for 24 hours with either 50 nM Paclitaxel or the corresponding 0.1% DMSO. The following day, the microharpoon assay was performed as described in Fedorchak et al., “Cell Microharpooning to Study Nucleo-Cytoskeletal Coupling,” Methods Mol. Biol. 1411:241-254 (2016), which is hereby incorproated by reference in its entirety, with slight modifications to the pull parameters to accommodate myotubes. The microharpoon was inserted ≈5-7 μm from the edge of the nucleus and pulled 15 μm at a rate of 1 μm/s. Pull direction was always orthogonal to the long axis of the myofiber. Images were acquired at 40× (+1.6×) every 5 seconds. Nuclear strain and centroid displacement were calculated using a custom-written MATLAB program. […]

Lmna KO myofibers [5] = assay: Quantification of myonuclei with chromatin protrusions; assay type: cell-based, mouse; conditions: paclitaxel 50 nM starting day 4, read day 7, vs DMSO
Procedure: Pharmacological treatments. For preliminary experiments, myoblasts were differentiated using the standard protocol and treated with pharmacological treatments starting at day 5 of differentiation. For chromatin protrusion studies, paclitaxel was administered to differentiated myotubes in two 24 hours bursts at day 4 and day 6-post differentiation with a 24 hour recovery in between. Myotubes were then fixed in 4% PFA at day 7 and stained with anti-lamin B and DAPI in order to quantify the percentage of myonuclei with chromatin protrusions. For long term studies using the cGAS reporter, myotubes were treated with 10 nM of paclitaxel starting at day 5 and then media was refreshed every day. […]
Image analysis. Image sequences were analyzed using ZEN (Zeiss), ImageJ, or MATLAB (Mathworks) using only linear adjustments uniformly applied to the entire image region. […] To quantify cleaved caspase-3 (i.e. active) area and myofiber health, maximum intensity protections were generated, which were then blinded to the observer. Cleaved caspase-3 area was calculated by thresholding of the caspase-3 and myosin heavy chain fluorescent signal and expressing the cleaved caspase-3 signal relative to the myosin heavy chain signal. Myofiber contractions were scored based on a minimum of 6 random fields of view per replicate using a blinded analysis according to the scales provided in FIGS. 4A-4B. […]

Lmna KO myofibers [6] = assay: Nuclear envelope rupture, cGAS-mCherry reporter foci; assay type: cell-based, mouse; conditions: paclitaxel 10 nM starting day 5, vs DMSO
Text: Each of the mutant myoblast lines were stably modified with lentiviral vectors to express the nuclear rupture reporter NLS-GFP (pCDH-CMV-NLS-copGFP-EF1-blastiS) and cGAS-mCherry (pCDH-CMV-eGAs^E225A/D227A-mCherry2-EF1-blastiS). cGAS is a cytosolic DNA binding protein; a cGAS mutant (E225A/D227A) with abolished enzyme activity and interferon production, but that still binds DNA (Civril et al., “Structural Mechanism of Cytosolic DNA Sensing by cGAS,” Nature 498:332-337 (2013), which is hereby incorporated by reference in its entirety) and serves as a nuclear envelope rupture reporter (Denais et al., “Nuclear Envelope Rupture and Repair During Cancer Cell Migration,” Science 352:353-358 (2016), which is hereby incorporated by reference in its entirety) was used.
Extended imaging using incubator microscope. […] Resulting images were analyzed using the Incucyte software, which performs fluorescence background subtraction using a top hat method and then subsequent thresholding. cGAS-mCherry cells were thresholded and then analyzed for increase in fluorescent foci over time to track the rate of increase in nuclear envelope rupture or damage. […]

Molecule | myofiber viability (MTT) (Lmna KO myofibers [1]) | DNA damage (γH2AX foci per nucleus) (Lmna WT myofibers [2]) | DNA damage (γH2AX foci) (Lmna WT myofibers [2]) | myofiber viability (MTT) (Lmna WT myofibers [3]) | nuclear envelope rupture (chick cardiac tissue) | cardiac conduction defects (Lmna H222P mice) | nuclear deformation in response to cytoplasmic force application (nuclear strain) (Lmna KO myofibers [4]) | percentage of nuclei with chromatin protrusions (Lmna KO myofibers [5]) | incidence of nuclear envelope rupture (cGAS-mCherry foci) (Lmna KO myofibers [6])
O=c1cc(-c2cccc3c2Sc2ccccc2S3)oc(N2CCOCC2)c1 [KU55933] | did not further reduce viability | significant increase in DNA damage | accumulation of DNA damage | loss of viability | – | – | – | – | –
O=c1cc(N2CCOCC2)oc2c(-c3cccc4c3sc3ccccc34)cccc12 [NU7441] | did not further reduce viability | significant increase in DNA damage | accumulation of DNA damage | loss of viability | – | – | – | – | –
Cc1ccc2c(c1)C(=O)C1(O)CCN(c3ccccc3)C1=N2 (stereo not shown) [blebbistatin] | – | – | – | – | rescued | – | – | – | –
CC(=O)O[C@H]1C(=O)[C@@]2(C)[C@H]([C@H](OC(=O)c3ccccc3)[C@]3(O)C[C@H](OC(=O)[C@H](O)[C@@H](NC(=O)c4ccccc4)c4ccccc4)C(C)=C1C3(C)C)[C@]1(OC(C)=O)CO[C@@H]1C[C@@H]2O [paclitaxel] | – | – | – | – | – | improve cardiac conduction defects | significantly reduced nuclear deformation | significantly reduced the percentage of nuclei with chromatin protrusions | significantly reduced
phleomycin | did not further reduce viability | – | accumulation of DNA damage | loss of viability | – | – | – | – | –
